Test results taken from patent US20240343747A1, “Heteroaryl compounds as inhibitors of TYK2, composition and application thereof” (Accro Bioscience (HK) Limited, priority 2021, published 2024).

What was measured:
[1] = Plasma protein binding test, human; format: in vitro ADME; conditions: for plasma protein binding (in words): conclusion from Table 7, all species tested; for fraction unbound at 4 h, 2 μM: human plasma
Protocol: • 1. Test compound and control compound were dissolved in dimethyl sulfoxide (DMSO) to achieve 10 mM stock solutions. DMSO working solutions were prepared at 400 μM. To prepare the loading matrix, compound working solutions (5 μL) were added in a 1:200 ratio to blank matrix (995 μL), and mixed thoroughly. • 2. To prepare the time zero (TO) samples to be used for recovery determination, 50 μL aliquots of loading matrix were transferred in triplicate to the sample collection plate. The samples were immediately matched with opposite blank buffer to obtain a final volume of 100 μL of 1:1 matrix/dialysis buffer (v/v) in each well. 500 μL of stop solution were added to these TO samples. They were then stored at 2-8° C. pending further processes along with other post-dialysis samples. • 3. To load the dialysis device, an aliquot of 150 μL of the loading matrix was transferred to the donor side of each dialysis well in triplicate, and 150 μL of the dialysis buffer was loaded to the receiver side of the well. The dialysis plate was placed in a humidified incubator at 37° C. with 5% CO2 on a shaking platform that rotated slowly (about 100 rpm) for 4 hours • 4. At the end of the dialysis, aliquots of 50 μL of samples were taken from both the buffer side and the matrix side of the dialysis device. These samples were transferred into new 96-well plates. Each sample was mixed with an equal volume of opposite blank matrix (buffer or matrix) to reach a final volume of 100 μL of 1:1 matrix/dialysis buffer (v/v) in each well. All samples were further processed by adding 500 μL of stop solution containing internal standards. The mixture was vortexed and centrifuged at 4000 rpm for about 20 minutes. An aliquot of 100 μL of supernatant of all the samples was then removed for LC-MS/MS analysis • 5. The single blank samples were prepared by transferring […] of blank matrix to a 96 well plate and adding 50 μL of blank PBS buffer to each well. The blank plasma must match the species of plasma used in the plasma side of the well. Then the matrix-matched samples were further processed by adding 500 μL of stop solution containing internal standards, following the same sample processing method as the dialysis samples.
The % Unbound and % Bound were calculated using the following equations:
% Unbound=100×[F]/[T]; % Bound=100−% Unbound
Where [F] is the analyte concentration or peak area ratio of analyte/internal standard on the buffer (receiver) side of the membrane, [T] is the analyte concentration or peak area ratio of analyte/internal standard on the matrix (donor) side of the membrane, and [T0] is the analyte concentration or the peak area ratio of analyte/internal standard in the loading matrix sample at time zero.

[2] = Pharmacokinetic evaluation in beagle dog; format: in vivo; conditions: for F / AUC / Vd / clearance / half-life / Cmax / Tmax: beagle dog; for plasma exposure in beagle dog (in words): conclusion from Table 11; for AUC / Vd / clearance / half-life / Cmax / Tmax: plasma
Protocol: The beagle dog pharmacokinetic characteristics of compounds were tested by standard protocols. The candidate compounds were made into clear solution for single intravenous injection (i.v.) and suspension for oral administration (p.o.). Intravenous and oral vehicle is 5% DMSO+10% Solutol+85% Saline. The experiment used 9 dog and 3 dog for intravenous at a dose of 1 mg/kg. Plasma samples were collected at 0 h (before dosing) and 0.083 h, 0.25 h, 0.5 h, 1 h, 2 h, 4 h, 8 h, 24 h after dosing. 3 dog were orally administrated at a dose of 5 mg/kg and 3 dog were orally administrated at a dose of 15 mg/kg. Plasma samples were collected at 0 h (before dosing) and 0.25 h, 0.5 h, 1 h, 2 h, 4 h, 6 h, 8 h, 24 h after dosing.
Blood samples were placed in tubes containing K2-EDTA and stored on ice until centrifuged. The blood samples were centrifuged at 6800 g for 6 minutes at 2-8° C. within 1 h after collected, and stored frozen at approximately −80° C.
The analytical results were confirmed using quality control samples for intra-assay variation. The accuracy of >66.7% of the quality control samples and 50% of all QC samples at each concentration level were between 80-120% of the known value(s).
Standard set of parameters including area under the curve (AUC(0-t) and AUC(0-∞)), elimination half-live (T1/2), maximum plasma concentration (Cmax), time to reach maximum plasma concentration (Tmax) were calculated using noncompartmental analysis modules in FDA certified pharmacokinetic program Phoenix WinNonlin 7.0 (Pharsight, USA) by the Study Director.

[3] = system: production of CXCL-10 stimulated by IFNα in PBMC; experiment: ELISA: production of CXCL-10 stimulated by IFNα in PBMC; format: cell-based; conditions: CXCL-10 production stimulated by IFNα in PBMC; for IC50: ELISA
Protocol: • 1. Soak plate: Add 300 μL 1×washing solution and let stand for 30 seconds. After discarding the washing solution, dry the microporous plate on absorbent paper. • 2. Add standard: Add 100 μL of 2-fold standard to standard well. Add 100 μL standard dilution (serum/plasma sample) or culture medium (cell culture supernatant sample) to blank well. • 3. Add sample: Serum/plasma: Add 50 μL 1×assay buffer and 50 μL sample to sample well. Cell culture supernatant: Add 100 μL cell culture supernatant to sample well. • 4. Add detection antibody: Add 50 μL diluted detection antibody (1:100 diluted) to each well. Make sure steps 4, 5 and 6 are added continuously without interruption. The sampling process was completed within 15 minutes. • 5. Incubation: Use sealing plate film to seal the plate. shake at 300 rpm and incubate for 2 hours at room temperature. • 6. Washing: Discard the liquid, add 300 μL of washing solution and wash the plate 6 times. pat dry on blotting paper after each wash. To obtain the desired experimental performance, the residual liquid must be completely removed. • 7. Enzyme addition: Add 100 μL diluted horseradish peroxidase labeled streptavidin to each well (1:100 diluted). • 8. Incubation: Seal the plate with a new sealing film. shake at 300 rpm and incubate at room temperature for 45 minutes. • 9. Washing. Repeat step […]. • 10. Add substrate for color development: Add 100 μL of color development substrate TMB to each well, keep away from light, and incubate at room temperature for 5-30 minutes. • 11. Add Stop Solution: Add 100 μL stop solution to each well. The color changed from blue to yellow. If the color appears green or the color changes unevenly, gently tap the frame of the plate to mix well. • 12. Assay readout: Within 30 minutes, perform dual wavelength detection using a microplate reader to measure the OD at the absorption maximum at 450 nm and reference wavelengths at 570 nm or 630 nm. The calibrated OD value is the measured value at 450 nm minus the measured value at 570 nm or 630 nm.

Row | SMILES | plasma protein binding (in words) [1] | fraction unbound at 4 h, 2 μM [1] | F ([2]; p.o. 5 mg/kg) [%] | F ([2]; p.o. 15 mg/kg) [%] | plasma exposure in beagle dog (in words) [2] | AUC ([2]; iv, i.v. 1 mg/kg) [ng·h/mL] | Vd ([2]; iv, i.v. 1 mg/kg) [L/kg] | clearance ([2]; iv, i.v. 1 mg/kg) [mL/min/kg] | half-life ([2]; iv, i.v. 1 mg/kg) [h] | AUC ([2]; po, p.o. 5 mg/kg) [ng·h/mL] | Cmax ([2]; po, p.o. 5 mg/kg) [ng/mL] | Tmax ([2]; po, p.o. 5 mg/kg) [h] | AUC ([2]; po, p.o. 15 mg/kg) [ng·h/mL] | Cmax ([2]; po, p.o. 15 mg/kg) [ng/mL] | Tmax ([2]; po, p.o. 15 mg/kg) [h] | activity compared with BMS986165 [3] | IC50 [3] [nM]
1 | CCC(=O)c1cnc(NC(=O)C2CC2)cc1Nc1cccc(-c2cc(P(C)(C)=O)n(C)n2)c1OC [Compound B2, N-(4-((3-(5-(dimethylphosphoryl)-1-methyl-1H-pyrazol-3-yl)-2-methoxyphenyl)amino)-5-propionylpyridin-2-yl)cyclopropanecarboxamide] | moderate to high | 0.048 | – | – | – | – | – | – | – | – | – | – | – | – | – | – | –
2 | [2H]C([2H])([2H])n1nc(-c2cccc(Nc3cc(NC(=O)C4CC4)ncc3C(=O)CC)c2OC)cc1P(C)(C)=O [Compound B22] | moderate to high | 0.051 | – | – | – | – | – | – | – | – | – | – | – | – | – | – | –
3 | CCC(=O)c1cnc(NC(=O)C2CC2)cc1Nc1cccc(-c2cc(P(=O)(C3CC3)C3CC3)n(C)n2)c1OC [Compound B37, N-(4-((3-(5-(dicyclopropylphosphoryl)-1-methyl-1H-pyrazol-3-yl)-2-methoxyphenyl)amino)-5-propionylpyridin-2-yl)cyclopropanecarboxamide] | – | – | 46 | 21 | excellent plasma exposure | 9240 | 0.33 | 1.9 | 2.2 | 21300 | 3980 | 0.83 | 28600 | 4870 | 0.67 | more active than BMS986165 | 28.2
4 | [2H]C([2H])([2H])NC(=O)c1nnc(NC(=O)C2CC2)cc1Nc1cccc(-c2cc(P(=O)(C3CC3)C3CC3)n(C)n2)c1OC [Compound B41, 6-(cyclopropanecarboxamido)-4-((3-(5-(dicyclopropylphosphoryl)-1-methyl-1H-pyrazol-3-yl)-2-methoxyphenyl)amino)-N-(methyl-d3)pyridazine-3-carboxamide] | moderate to high | 0.084 | 79 | 120 | excellent plasma exposure | 4900 | 0.56 | 4 | 2.1 | 19400 | 3100 | 1 | 88000 | 9870 | 1.7 | – | 39.5
